The target of the assay is human APJ receptor (Homo sapiens (Human), UniProt P35414). Description: Intracellular cAMP accumulation assay (APJ hcAMP, HTRF). The format is cell-based. Particulars: HEK293 cells stably expressing human APJ receptor; inhibition of forskolin-mediated cAMP production; read-out: hAPJ cAMP EC50 (nM) Potency range. A digest of the protocol:
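cAMP inhibition was quantified by HTRF against a cAMP standard curve, with EC50 fitted to a variable-slope sigmoidal curve. Compounds acted on 5,000 APJ-stable HEK293 cells for 30 minutes at room temperature alongside 2 μM forskolin and […] IBMX. Detection reagents were incubated 60 min.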
In general terms: cAMP levels reflect the balance of adenylyl cyclase and phosphodiesterase activity.

As a reminder, the EC50 is the midpoint of the concentration-response curve.

Sequence of human APJ receptor (P35414 whole entry): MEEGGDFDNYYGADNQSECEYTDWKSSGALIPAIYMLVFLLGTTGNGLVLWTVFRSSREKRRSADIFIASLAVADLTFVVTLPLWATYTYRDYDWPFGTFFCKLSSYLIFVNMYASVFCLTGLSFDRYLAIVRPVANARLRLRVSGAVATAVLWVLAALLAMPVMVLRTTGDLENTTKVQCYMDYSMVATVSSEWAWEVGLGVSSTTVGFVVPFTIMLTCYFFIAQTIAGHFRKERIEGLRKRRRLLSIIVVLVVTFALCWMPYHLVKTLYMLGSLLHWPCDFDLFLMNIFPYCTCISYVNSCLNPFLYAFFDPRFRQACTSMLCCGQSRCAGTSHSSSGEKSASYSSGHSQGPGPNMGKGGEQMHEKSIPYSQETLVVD

As for `C#CCNC(=O)Cc1nnc(-c2c(O)nc(CCCC)c(-c3c(OC)cccc3OC)c2O)o1` [Example 262, 2-{5-[6-butyl-5-(2,6-dimethoxyphenyl)-2,4-dihydroxy-pyridin-3-yl]-1,3,4-oxadiazol-2-yl}-N-(prop-2-yn-1-yl)acetamide], the EC50 lay within 0.01 to 10 nM.
Regarding `CCCCc1nc(O)c(-c2nnc(CC(=O)Nc3cc(C)n[nH]3)o2)c(O)c1-c1c(OC)cccc1OC` [Example 263, 2-{5-[6-butyl-5-(2,6-dimethoxyphenyl)-2,4-dihydroxy-pyridin-3-yl]-1,3,4-oxadiazol-2-yl}-N-(3-methyl-1H-pyrazol-5-yl)acetamide], the EC50 was in the range of 0.01 to 10 nM.
For the molecule `CCCCc1nc(O)c(-c2nnc(CC(=O)NCc3ccccc3C)o2)c(O)c1-c1c(OC)cccc1OC` [Example 264, 2-{5-[6-butyl-5-(2,6-dimethoxyphenyl)-2,4-dihydroxy-pyridin-3-yl]-1,3,4-oxadiazol-2-yl}-N-[(2-methylphenyl)methyl]acetamide], the half-maximal effective concentration (EC50) lay within 0.01 to 10 nM.
For `CCCCc1nc(O)c(-c2nnc(CC(=O)NCc3ccccc3Cl)o2)c(O)c1-c1c(OC)cccc1OC` [Example 265, 2-{5-[6-butyl-5-(2,6-dimethoxyphenyl)-2,4-dihydroxy-pyridin-3-yl]-1,3,4-oxadiazol-2-yl}-N-[(2-chlorophenyl)methyl]acetamide], the concentration giving a half-maximal response (EC50) lay within 0.01 to 10 nM.
Take `CCCCc1nc(O)c(-c2nnc(CC(=O)NCc3ccc(Cl)cc3)o2)c(O)c1-c1c(OC)cccc1OC` [Example 266, 2-{5-[6-butyl-5-(2,6-dimethoxyphenyl)-2,4-dihydroxy-pyridin-3-yl]-1,3,4-oxadiazol-2-yl}-N-[(4-chlorophenyl)methyl]acetamide]: the concentration for a half-maximal effect (EC50) lay within 0.01 to 10 nM.
Next, `CCCCc1nc(O)c(-c2nnc(CC(=O)NCCc3ccc(Cl)cc3)o2)c(O)c1-c1c(OC)cccc1OC` [Example 267, 2-{5-[6-butyl-5-(2,6-dimethoxyphenyl)-2,4-dihydroxy-pyridin-3-yl]-1,3,4-oxadiazol-2-yl}-N-[2-(4-chlorophenyl)ethyl]acetamide]: 0.01 to 10 nM.
Regarding `CCCCc1nc(O)c(-c2nnc(CC(=O)NCc3ccncc3)o2)c(O)c1-c1c(OC)cccc1OC` [Example 268, 2-{5-[6-butyl-5-(2,6-dimethoxyphenyl)-2,4-dihydroxy-pyridin-3-yl]-1,3,4-oxadiazol-2-yl}-N-[(pyridin-4-yl)methyl] acetamide], the 50% effective concentration (EC50) was in the range of 0.01 to 10 nM.
Regarding `CCCCc1nc(O)c(-c2nnc(CC(=O)NCc3ccc(OC)cc3)o2)c(O)c1-c1c(OC)cccc1OC` [Example 269, 2-{5-[6-butyl-5-(2,6-dimethoxyphenyl)-2,4-dihydroxy-pyridin-3-yl]-1,3,4-oxadiazol-2-yl}-N-[(4-methoxyphenyl)methyl]acetamide], the EC50 is 0.01 to 10 nM.
The result for `CCCCc1nc(O)c(-c2nnc(CC(=O)NCc3ccc(N(C)C)cc3)o2)c(O)c1-c1c(OC)cccc1OC` [Example 270, 2-{5-[6-butyl-5-(2,6-dimethoxyphenyl)-2,4-dihydroxy-pyridin-3-yl]-1,3,4-oxadiazol-2-yl}-N-{[4-(dimethylamino)phenyl]methyl} acetamide] reads 0.01 to 10 nM.
Regarding `CCCCc1nc(O)c(-c2nnc(CC(=O)NCc3nnc(C)o3)o2)c(O)c1-c1c(OC)cccc1OC` [Example 271, 2-{5-[6-butyl-5-(2,6-dimethoxyphenyl)-2,4-dihydroxypyridin-3-yl]-1,3,4-oxadiazol-2-yl}-N-[(5-methyl-1,3,4-oxadiazol-2-yl)methyl]acetamide], the 50% effective concentration (EC50) is 0.01 to 10 nM.
Next, `CCCCc1nc(O)c(-c2nnc(CC(=O)NCc3cc(C(C)C)no3)o2)c(O)c1-c1c(OC)cccc1OC` [Example 272, 2-{5-[6-butyl-5-(2,6-dimethoxyphenyl)-2,4-dihydroxy-pyridin-3-yl]-1,3,4-oxadiazol-2-yl}-N-{[3-(propan-2-yl)-1,2-oxazol-5-yl]methyl} acetamide]: 0.01 to 10 nM.
Consider `CCCCc1nc(O)c(-c2nnc(CC(=O)NCc3ccc(S(N)(=O)=O)cc3)o2)c(O)c1-c1c(OC)cccc1OC` [Example 273, 2-{5-[6-butyl-5-(2,6-dimethoxyphenyl)-2,4-dihydroxy-pyridin-3-yl]-1,3,4-oxadiazol-2-yl}-N-[(4-sulfamoylphenyl)methyl]acetamide], for which the EC50 lay in the range of 10 to 100 nM.
Next, `CCOCc1nc(O)c(-c2nnc(Cc3ccc(Cl)cn3)o2)c(O)c1-c1c(O)cccc1OC` [Example 274, 3-{5-[(5-chloropyridin-2-yl)methyl]-1,3,4-oxadiazol-2-yl}-6-(ethoxymethyl)-5-(2-hydroxy-6-methoxyphenyl) pyridine-2,4-diol]: 0.01 to 10 nM; `CCOCc1nc(O)c(-c2nnc(Cc3ccc(Cl)cn3)o2)c(O)c1-c1c(O)cccc1OC` [Example 275, 3-{5-[(5-chloropyridin-2-yl)methyl]-1,3,4-oxadiazol-2-yl}-6-(ethoxymethyl)-5-(2-hydroxy-6-methoxyphenyl) pyridine-2,4-diol]: 10 to 100 nM.
The result for `CCOCc1nc(O)c(-c2nnc(Cc3ccc(Cl)cn3)o2)c(O)c1-c1c(O)cccc1O` [Example 276, 3-{5-[(5-chloropyridin-2-yl)methyl]-1,3,4-oxadiazol-2-yl}-5-(2,6-dihydroxyphenyl)-6-(ethoxymethyl) pyridine-2,4-diol] reads 10 to 100 nM.

The values above are taken from patent publication US10336739B2, “4-hydroxy-3-(heteroaryl)pyridine-2-one APJ agonists” (BRISTOL-MYERS SQUIBB COMPANY, priority 2015, dated 2019).
